Experimental data as given in patent US20260317324A1, “BIFUNCTIONAL COMPOUNDS FOR DEGRADING BRAF VIA UBIQUITIN PROTEOSOME PATHWAY” (Nurix Therapeutics, Inc., priority 2023, published 2026).

Molecular target: T1, BRAF V600E (Homo sapiens, UniProt P15056, V600E)
T1 construct: endogenous C-terminal HiBiT fusion tag on BRAF V600E allele; endogenous in cells; host or cells: A375 clone 1F10 (CRISPR-Cas9 knock-in of the HiBiT tag; parental A375 from ATCC)
Assay: BRAF HiBiT degradation assay, C-terminal HiBiT-tagged BRAF V600E A375 cells (clone 1F10), Nano-Glo HiBiT Lytic assay
Type: cell-based
Settings: for Dmax: A-375
Procedure, shortened: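 Using CRISPR-engineered A375 cells that carry a C-terminal HiBiT tag on endogenous BRAF V600E, remaining protein was quantified by lytic luminescence relative to DMSO-treated cells, with wildtype A375 as the background control. DC50 denotes the concentration giving 50% degradation.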

[1] = A375 (BRAF V600E), DC50 at 50%: fitted conc. at Y=50
[2] = A375 (BRAF V600E), percentage protein degraded at maximal compound effect relative to DMSO
[3] = A375 (BRAF V600E, Class 1), DC50 at 50% degradation
[4] = A375 (BRAF V600E, Class 1), observed Dmax, % protein degraded relative to DMSO control

T1 sequence (P15056 whole entry V600E, the tested form may be a part): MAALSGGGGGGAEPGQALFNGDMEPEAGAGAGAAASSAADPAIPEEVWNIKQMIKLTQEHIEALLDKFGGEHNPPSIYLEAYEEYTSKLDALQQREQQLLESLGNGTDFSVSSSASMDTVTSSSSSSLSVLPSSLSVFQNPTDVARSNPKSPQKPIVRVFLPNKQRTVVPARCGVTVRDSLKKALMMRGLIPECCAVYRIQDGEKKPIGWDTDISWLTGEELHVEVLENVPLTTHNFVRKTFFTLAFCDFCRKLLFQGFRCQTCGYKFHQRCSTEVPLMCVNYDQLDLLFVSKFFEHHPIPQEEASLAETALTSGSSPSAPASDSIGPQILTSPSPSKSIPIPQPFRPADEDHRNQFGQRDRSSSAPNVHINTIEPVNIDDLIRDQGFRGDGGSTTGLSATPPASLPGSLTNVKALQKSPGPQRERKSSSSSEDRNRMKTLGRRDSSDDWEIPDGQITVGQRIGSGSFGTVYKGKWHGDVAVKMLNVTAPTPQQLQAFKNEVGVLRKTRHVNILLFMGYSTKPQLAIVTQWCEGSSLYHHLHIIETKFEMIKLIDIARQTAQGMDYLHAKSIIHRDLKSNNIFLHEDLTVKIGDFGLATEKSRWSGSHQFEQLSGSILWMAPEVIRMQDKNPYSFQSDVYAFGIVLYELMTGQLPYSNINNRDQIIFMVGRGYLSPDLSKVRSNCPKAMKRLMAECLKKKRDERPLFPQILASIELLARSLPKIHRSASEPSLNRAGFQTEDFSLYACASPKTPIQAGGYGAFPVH

SMILES | DC50 [1] [nM] | Dmax [2] [%] | DC50 [3] [nM] | Dmax [4] [%]
CCCS(=O)(=O)Nc1cccc(-c2cn(-c3ccc(C(=O)N4CCN(CC5CCN(c6ccc([C@H]7CCC(=O)NC7=O)cc6)CC5)CC4)cc3)nc2-c2ccncc2)c1F [Compound 11, N-{3-[1-(4-{4-[(1-{4-[(3R)-2,6-dioxopiperidin-3-yl]phenyl}piperidin-4-yl)methyl]piperazine-1-carbonyl}phenyl)-3-(pyridin-4-yl)-1H-pyrazol-4-yl]-2-fluorophenyl}propane-1-sulfonamide] | 50 to 500 | 30 to 70 | – | –
CCCS(=O)(=O)Nc1cccc(-c2cn(-c3ccc(C(=O)N4CCN(CC5CCN(c6ccc([C@@H]7CCC(=O)NC7=O)cc6)CC5)CC4)cc3)nc2-c2ccncc2)c1F [Compound 12, N-{3-[1-(4-{4-[(1-{4-[(3S)-2,6-dioxopiperidin-3-yl]phenyl}piperidin-4-yl)methyl]piperazine-1-carbonyl}phenyl)-3-(pyridin-4-yl)-1H-pyrazol-4-yl]-2-fluorophenyl}propane-1-sulfonamide] | 50 to 500 | 30 to 70 | – | –
CCCS(=O)(=O)Nc1cccc(-c2nc(C)sc2-c2ccnc(Nc3ccc(N4CCN(CC5CCN(c6ccc([C@H]7CCC(=O)NC7=O)cc6)CC5)CC4)cn3)n2)c1F [Compound 60, N-[3-(5-{2-[(5-{4-[(1-{4-[(3R)-2,6-dioxopiperidin-3-yl]phenyl}piperidin-4-yl)methyl]piperazin-1-yl}pyridin-2-yl)amino]pyrimidin-4-yl}-2-methyl-1,3-thiazol-4-yl)-2-fluorophenyl]propane-1-sulfonamide] | 10 to 50 | > 70 | – | –
CCCS(=O)(=O)Nc1cccc(-c2nc(C(C)(C)C)sc2-c2ccnc(Nc3ccc(C4CCN(C(=O)CCCC(=O)N[C@H](C(=O)N5C[C@H](O)C[C@H]5C(=O)N[C@@H](C)c5ccc(-c6scnc6C)cc5)C(C)(C)C)CC4)cc3)n2)c1F [Compound 86, (2S,4R)-1-[(2S)-2-[5-(4-{4-[(4-{2-tert-butyl-4-[2-fluoro-3-(propane-1-sulfonamido)phenyl]-1,3-thiazol-5-yl}pyrimidin-2-yl)amino]phenyl}piperidin-1-yl)-5-oxopentanamido]-3,3-dimethylbutanoyl]-4-hydroxy-N-[(1S)-1-[4-(4-methyl-1,3-thiazol-5-yl)phenyl]ethyl]pyrrolidine-2-carboxamide] | 50 to 500 | 30 to 70 | – | –
CCCS(=O)(=O)Nc1cccc(-c2nc(C(C)(C)C)sc2-c2ccnc(Nc3ccc(N4CCN(CC5CCN(c6ccc([C@@H]7CCC(=O)NC7=O)cc6)CC5)CC4)c(F)c3)n2)c1F [Compound 88, N-[3-(2-tert-butyl-5-{2-[(4-{4-[(1-{4-[(3S)-2,6-dioxopiperidin-3-yl]phenyl}piperidin-4-yl)methyl]piperazin-1-yl}-3-fluorophenyl)amino]pyrimidin-4-yl}-1,3-thiazol-4-yl)-2-fluorophenyl]propane-1-sulfonamide] | 10 to 50 | 30 to 70 | – | –
CCCS(=O)(=O)Nc1cccc(-c2nc(C(C)(C)C)sc2-c2ccnc(Nc3ccc(C4CCN(CC5CCN(c6ccc([C@@H]7CCC(=O)NC7=O)cc6)CC5)CC4)cc3)n2)c1F [Compound 90, N-[3-(2-tert-butyl-5-{2-[(4-{1-[(1-{4-[(3S)-2,6-dioxopiperidin-3-yl]phenyl}piperidin-4-yl)methyl]piperidin-4-yl}phenyl)amino]pyrimidin-4-yl}-1,3-thiazol-4-yl)-2-fluorophenyl]propane-1-sulfonamide] | 10 to 50 | 30 to 70 | – | –
CCCS(=O)(=O)Nc1cccc(-c2nc(C(C)(C)C)sc2-c2ccnc(NC3CC4(CCN(CC5CCN(c6ccc([C@H]7CCC(=O)NC7=O)cc6)CC5)CC4)C3)n2)c1F [Compound 133, N-(3-{2-tert-butyl-5-[2-({7-[(1-{4-[(3R)-2,6-dioxopiperidin-3-yl]phenyl}piperidin-4-yl)methyl]-7-azaspiro[3.5]nonan-2-yl}amino)pyrimidin-4-yl]-1,3-thiazol-4-yl}-2-fluorophenyl)propane-1-sulfonamide] | 10 to 50 | 30 to 70 | – | –
CCCS(=O)(=O)Nc1cccc(-c2nc(C(C)(C)C)sc2-c2ccnc(N[C@H]3CC[C@H](CN4CCN(CC5CCN(c6ccc([C@@H]7CCC(=O)NC7=O)cc6)CC5)CC4)CC3)n2)c1F [Compound 139, N-{3-[2-tert-butyl-5-(2-{[(1r,4r)-4-({4-[(1-{4-[(3S)-2,6-dioxopiperidin-3-yl]phenyl}piperidin-4-yl)methyl]piperazin-1-yl}methyl)cyclohexyl]amino}pyrimidin-4-yl)-1,3-thiazol-4-yl]-2-fluorophenyl}propane-1-sulfonamide] | 10 to 50 | 30 to 70 | – | –
CCCS(=O)(=O)Nc1cccc(-c2nc(C(C)(C)C)sc2-c2ccnc(NCC(C)(C)C3CCN(CC4CCN(c5ccc([C@H]6CCC(=O)NC6=O)cc5)CC4)CC3)n2)c1F [Compound 144, N-[3-(2-tert-butyl-5-{2-[(2-{1-[(1-{4-[(3R)-2,6-dioxopiperidin-3-yl]phenyl}piperidin-4-yl)methyl]piperidin-4-yl}-2-methylpropyl)amino]pyrimidin-4-yl}-1,3-thiazol-4-yl)-2-fluorophenyl]propane-1-sulfonamide] | 50 to 500 | 30 to 70 | – | –
CCCS(=O)(=O)Nc1cccc(-c2nc(C(C)(C)C)sc2-c2ccnc(NCC3CCN(CC4CCN(c5ccc([C@H]6CCC(=O)NC6=O)cc5)CC4)CC3)n2)c1F [Compound 145, N-[3-(2-tert-butyl-5-{2-[({1-[(1-{4-[(3R)-2,6-dioxopiperidin-3-yl]phenyl}piperidin-4-yl)methyl]piperidin-4-yl}methyl)amino]pyrimidin-4-yl}-1,3-thiazol-4-yl)-2-fluorophenyl]propane-1-sulfonamide] | > 500 | 30 to 70 | – | –
CCCS(=O)(=O)Nc1cccc(-c2nc(C3CCN(C(=O)C4CCN(C(=O)C5CCN(c6ccc([C@@H]7CCC(=O)NC7=O)cc6)CC5)CC4)CC3)sc2-c2ccncc2)c1F [Compound 200, N-[3-(2-{1-[1-(1-{4-[(3S)-2,6-dioxopiperidin-3-yl]phenyl}piperidine-4-carbonyl)piperidine-4-carbonyl]piperidin-4-yl}-5-(pyridin-4-yl)-1,3-thiazol-4-yl)-2-fluorophenyl]propane-1-sulfonamide] | 10 to 50 | > 70 | – | –
O=C1CC[C@H](c2ccc(N3CCC(CN4CCN(c5ccc(-n6cc(-c7cc(F)cc(NS(=O)(=O)N8CCCC8)c7F)c(-c7ccncc7)n6)c(F)c5)CC4)CC3)cc2)C(=O)N1 [Compound 340, N-{3-[1-(4-{4-[(1-{4-[(3R)-2,6-dioxopiperidin-3-yl]phenyl}piperidin-4-yl)methyl]piperazin-1-yl}-2-fluorophenyl)-3-(pyridin-4-yl)-1H-pyrazol-4-yl]-2,5-difluorophenyl}pyrrolidine-1-sulfonamide] | – | – | < 10 | > 70

Second part, the molecule after the results:

DC50 [1] [nM] | Dmax [2] [%] | DC50 [3] [nM] | Dmax [4] [%] | SMILES
< 10 | > 70 | – | – | CCCS(=O)(=O)Nc1cccc(-c2nc(C)sc2-c2ccnc(Nc3ccc(C4CCN(CC5CCN(c6ccc([C@H]7CCC(=O)NC7=O)cc6)CC5)CC4)cc3)n2)c1F [Compound 63, N-[3-(5-{2-[(4-{1-[(1-{4-[(3R)-2,6-dioxopiperidin-3-yl]phenyl}piperidin-4-yl)methyl]piperidin-4-yl}phenyl)amino]pyrimidin-4-yl}-2-methyl-1,3-thiazol-4-yl)-2-fluorophenyl]propane-1-sulfonamide]
10 to 50 | > 70 | – | – | CCCS(=O)(=O)Nc1cccc(-c2nc(C)sc2-c2ccnc(Nc3ccc(C4CCN(CC5CCN(c6ccc([C@@H]7CCC(=O)NC7=O)cc6)CC5)CC4)cc3)n2)c1F [Compound 64, N-[3-(5-{2-[(4-{1-[(1-{4-[(3S)-2,6-dioxopiperidin-3-yl]phenyl}piperidin-4-yl)methyl]piperidin-4-yl}phenyl)amino]pyrimidin-4-yl}-2-methyl-1,3-thiazol-4-yl)-2-fluorophenyl]propane-1-sulfonamide]
< 10 | > 70 | – | – | CCCS(=O)(=O)Nc1cccc(-c2nc(C(C)(C)C)sc2-c2ccnc(Nc3cnn(CC4CCN(CC5CCN(c6ccc(C(=O)N[C@@H]7CCC(=O)NC7=O)nc6)CC5)CC4)c3)n2)c1F [Compound 66, 5-(4-{[4-({4-[(4-{2-tert-butyl-4-[2-fluoro-3-(propane-1-sulfonamido)phenyl]-1,3-thiazol-5-yl}pyrimidin-2-yl)amino]-1H-pyrazol-1-yl}methyl)piperidin-1-yl]methyl}piperidin-1-yl)-N-[(3R)-2,6-dioxopiperidin-3-yl]pyridine-2-carboxamide]
50 to 500 | 30 to 70 | – | – | CCCS(=O)(=O)Nc1cccc(-c2nc(C(C)(C)C)sc2-c2ccnc(NC[C@H]3CCN(CC4CCN(c5ccc(C(=O)N[C@H]6CCC(=O)NC6=O)nc5)CC4)C3)n2)c1F [Compound 143, 5-(4-{[(3R)-3-{[(4-{2-tert-butyl-4-[2-fluoro-3-(propane-1-sulfonamido)phenyl]-1,3-thiazol-5-yl}pyrimidin-2-yl)amino]methyl}pyrrolidin-1-yl]methyl}piperidin-1-yl)-N-[(3S)-2,6-dioxopiperidin-3-yl]pyridine-2-carboxamide]
– | – | > 500 | < 30 | CCCS(=O)(=O)Nc1cccc(-c2nc(C3CCN(Cc4ccc(C(=O)N[C@@H]5CCC(=O)NC5=O)cc4)CC3)sc2-c2ccnc(N)n2)c1F [Compound 255, 4-({4-[5-(2-aminopyrimidin-4-yl)-4-[2-fluoro-3-(propane-1-sulfonamido)phenyl]-1,3-thiazol-2-yl]piperidin-1-yl}methyl)-N-[(3R)-2,6-dioxopiperidin-3-yl]benzamide]
